Test results published in patent US8344181B2, “N-2 adamantanyl-2-phenoxy-acetamide derivatives as 11-beta hydroxysteroid dehydrogenase inhibitors” (Janssen Pharmaceutica N.V., priority 2004, dated 2013).

Key:
11β-HSD2 = target: T1, 11β-HSD2 (Homo sapiens, UniProt P80365); assay: Cellular assay of 11β-HSD2 activity in HepG2 cells; format: cell-based; conditions: 4 hour pre-incubation, 10^-5M to 10^-10M, read-out: HSD2 cellular HepG2 Score
T1 construct: endogenous in cells; host or cells: HepG2 (ATCC HB-8065)
T1 sequence (P80365 1-405): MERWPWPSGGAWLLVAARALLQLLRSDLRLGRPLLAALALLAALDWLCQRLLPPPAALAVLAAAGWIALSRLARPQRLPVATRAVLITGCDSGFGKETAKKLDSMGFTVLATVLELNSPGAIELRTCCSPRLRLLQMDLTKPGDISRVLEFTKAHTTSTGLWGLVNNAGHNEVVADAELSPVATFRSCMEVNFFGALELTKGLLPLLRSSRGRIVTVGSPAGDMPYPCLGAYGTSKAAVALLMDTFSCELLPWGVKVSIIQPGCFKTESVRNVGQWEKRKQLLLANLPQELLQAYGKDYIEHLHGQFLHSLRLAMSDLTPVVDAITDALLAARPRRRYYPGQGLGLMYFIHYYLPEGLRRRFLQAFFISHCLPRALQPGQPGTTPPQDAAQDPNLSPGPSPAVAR
Procedure: The effects on 11β-HSD2 activity was studied in HepG2 and LCC-PK1-cells HepG2-cells (ATCC HB-8065) were seeded in 12 well plates at a density of 100,000 cells/ml and grown at 37° C. in a humidified 5% CO2 atmosphere in MEM-Rega-3 medium supplemented with 10% heat inactivated foetal calf serum, 2 mM L-glutamine and sodium bicarbonate). Medium was refreshed twice a week.
Following a 4 hour pre-incubation with test compound, 0.5 μCi ^3H-cortisol or corticosterone, was added to the cultures. One hour later, the medium was extracted on Extrelut^3-columns with 15 ml diethyl ether and the extract was analysed by HPLC as described above.
(§1) As for the enzymatic assays, the compounds to be tested were taken from a stock solution and tested at a final concentration ranging from 10^−5M to 10^−10M. From the thus obtained dose response curves, the pIC50 value was calculated and scored as follows; Score 1=pIC50 value<5, Score 2=pIC50 value in the range of 5 to 6, Score 3=pIC50 value>6. (in this table NT stands for Not Tested).

11β-HSD1 = target: T2, 11β-HSD1 (Mus musculus, UniProt P50172); assay: Cellular assay of 11β-HSD1 activity in differentiated 3T3-L1 cells; format: cell-based; conditions: 4 hour pre-incubation, 10^-5M to 10^-10M, read-out: HSD1 cellular 3T3-L1 Score
T2 construct: endogenous in cells; host or cells: 3T3-L1 (ATCC-CL-173), differentiated into adipocytes
Procedure: The effects on 11β-HSD1 activity was measured in differentiated 3T3-L1 cells and rat hepatocytes.
Mouse fibroblast 3T3-L1 cells (ATCC-CL-173) were seeded at a density of 16500 cells/ml in 12 well plates and grown for 7 days in DMEM medium (supplemented with 10% heat inactivated foetal calf serum, 2 mM glutamine and 25 mg gentamycin) at 37° C. in a humidified 5% CO2 atmosphere. Medium was refreshed twice a week. Fibroblasts were differentiated into adipocytes at 37° C. in a 5% CO2 humidified atmosphere in growth medium containing 2 μg/ml insulin, 55 μg/ml IBMX and 39.2 μg/ml dexamethasone.
Primary hepatocytes from male rats were seeded on normal Falcon 12 well plates at a density of 250000 cells/well and incubated for 16 hours at 37° C. in a 5% CO2 humidified atmosphere in DMEM-HAM's F12 medium containing 5% Nu-serum, 100 U/ml penicillin, 100 μg/ml streptomycin, 0.25 μg/ml amphotericin B, 50 μg/ml gentamycin sulfate, 5 μg/ml insulin and 392 ng/ml dexamethasone. Following a 4 hour pre-incubation with test compound, 0.5 μCi ^3H-cortisone or dehydrocorticosterone, was added to the 3T3-L1 cultures. One hour later, the medium was extracted on Extrelut^3-columns with 15 ml diethyl ether and the extract was analysed by HPLC as described above. The effects of JNJ-compounds on rat hepatocyte HSD1 activity was measured after an incubation period of 90 minutes with 0.5 μCi^3H-dehydrocorticosterone. Corticosterone formation was analysed by HPLC.
as §1

T2 sequence (P50172 whole entry): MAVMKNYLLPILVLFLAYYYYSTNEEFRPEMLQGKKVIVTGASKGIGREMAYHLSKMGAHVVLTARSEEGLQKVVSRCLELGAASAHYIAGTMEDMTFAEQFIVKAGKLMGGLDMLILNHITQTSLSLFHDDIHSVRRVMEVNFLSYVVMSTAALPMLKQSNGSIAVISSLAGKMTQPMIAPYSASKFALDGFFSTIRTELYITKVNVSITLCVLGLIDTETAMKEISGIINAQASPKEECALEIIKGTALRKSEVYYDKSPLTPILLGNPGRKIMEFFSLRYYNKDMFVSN

IC50 (11β-HSD2) [nM]	IC50 (11β-HSD1) [nM]	Structure (SMILES)
< 1000	< 1000	CC(C)(Oc1ccccc1Br)C(=O)N[C@H]1[C@@H]2CC3C[C@H]1C[C@](O)(C3)C2 [Compound 15]
1000 to 10000	< 1000	CC(C)(Oc1cccc(C(F)(F)F)c1)C(=O)N[C@H]1[C@@H]2CC3C[C@H]1C[C@](NS(C)(=O)=O)(C3)C2 [Compound 83]
< 1000	< 1000	O=C(N[C@H]1[C@@H]2CC3C[C@H]1C[C@](O)(C3)C2)C1CCc2ccccc2O1 (stereo partly drawn) [Compound 26]
> 10000	< 1000	CC(C)(Oc1ccc(Cl)cc1)C(=O)N[C@H]1[C@@H]2CC3C[C@H]1C[C@](N)(C3)C2 [Compound 95]
1000 to 10000	< 1000	Cc1ccccc1NC(C)(C)C(=O)N[C@H]1[C@@H]2CC3C[C@H]1C[C@](O)(C3)C2 [Compound 34]
1000 to 10000	< 1000	CC(C)(Oc1cccc(Br)c1)C(=O)N[C@H]1[C@@H]2CC3C[C@H]1C[C@](NC(=O)CCl)(C3)C2 [Compound 90]
1000 to 10000	< 1000	Cc1cc(Cl)ccc1OC(C)(C)C(=O)N[C@H]1[C@@H]2CC3C[C@H]1C[C@](NC(=O)CN1CCOCC1)(C3)C2 [Compound 73]
> 10000	< 1000	Cc1ccc(S(=O)(=O)N[C@@]23CC4C[C@H](C2)[C@H](NC(=O)C(C)(C)Oc2cccc(C(F)(F)F)c2)[C@@H](C4)C3)cc1 [Compound 89]
1000 to 10000	< 1000	CN(C)CCCO[C@@]12CC3C[C@H](C1)[C@H](NC(=O)C(C)(C)Oc1cccc(Cl)c1)[C@@H](C3)C2 [Compound 44]
